Tested on: ⍺4β7
Test: SPR: inhibition by linear peptides of soluble ⍺4β7 binding to a gp120 V2 (cV2 92TH023) surface
Conditions: Fig 7C, 7E
Excerpt: To determine if this is the case, we employed an SPR -based assay. Biosensor surfaces were coated with either CD4 D1D2 or a 42 aa cyclic V2 peptide derived from the subtype E 92TH023 gp120 (cV2 92TH023). A third surface coated with MAdCAM-Ig was employed as a positive control. Soluble ⍺4β7 was passed over these surfaces. We then evaluated the capacity of staggered 15 aa peptides that span either CD4 D2 or gp120 V2 to inhibit this interaction (Fig 7A).
Fig 7 Reciprocal inhibition of gp120 V2 and CD4 binding to ⍺4β7 by D2 and V2 peptides. SPR measurements of soluble ⍺4β7 (analyte) binding to biosensor surfaces coated with CD4 D1D2, 92TH023 cyclic peptide, or MAdCAM-Ig in the absence or presence of either CD4 D2 or gp120 V2 peptides, as indicated. (A) List of overlapping 15 aa peptides corresponding to residues 157–187 of CD4 and residues 158–192 of gp120 V2 (subtype B consensus sequence). (B) Binding of ⍺4β7 to sCD4 D1D2 +/- CD4 D2 peptides. X-axis indicates ⍺4β7 mass bound (RU) at the end of the association phase. (C) Binding of ⍺4β7 to 92TH023 +/- gp120 V2 peptides. (D) Binding of ⍺4β7 to sCD4 D1D2 +/- gp120 V2 peptides. (E) Binding of ⍺4β7 to 92TH023 +/- CD4 D2 peptides. […]
Experiments were performed using a Biacore 3000 instrument (Cytiva Life Sciences) using CM4 or CM5 sensor chips. The data were evaluated using BIAevaluation 4.1.1 software (Cytiva Life Sciences). […]

“QKKVEFKIDIVVLA [CD4 P42, linear CD4 D2 peptide, residues 165-178, G β-strand]” was tested, and the “inhibition of gp120 binding to ⍺4β7 (in words)” value was “inhibits gp120 binding to ⍺4β7”.
